Earlier results, collected in patent US20060168671A1, “Injection of caprine sperm factor (cSF), phospholipase C zeta (PLCzeta) and adenophostin A as alternative methods of activation during nuclear transfer in the caprine species” (priority 2005, published 2006).

Columns and labels:
IP3R = details: relative to IP3; Takahashi et al., 1994
MII mouse eggs = details: Jellerette et al., 2000

Nc1ncnc2c1ncn2[C@@H]1O[C@H](CO)[C@@H](O[C@H]2O[C@H](CO)[C@@H](OP(=O)(O)O)[C@H](OP(=O)(O)O)[C@H]2O)[C@H]1OP(=O)(O)O [Adenophostin A]
affinity to IP3R greater than IP3 itself (IP3R): 10-100 fold | [Ca2+]i oscillations (MII mouse eggs): induces fertilization-like oscillations | activation rates (MII mouse eggs): high activation rates
